Assay results published in ChEMBL document CHEMBL1131696, “Highly constrained dipeptoid analogues containing a type II' beta-turn mimic as novel and selective CCK-A receptor ligands” (Bioorg Med Chem Lett, 1999).

Key:
[1] = target: T1, Gastrin/cholecystokinin type B receptor (Mus musculus, UniProt P56481); experiment: Inhibition of [3H]propionyl-CCK-8 binding to mouse cerebral cortex membrane cholecystokinin-B (CCK-B) receptor; assay type: tissue-based
T1 sequence (P56481 whole entry): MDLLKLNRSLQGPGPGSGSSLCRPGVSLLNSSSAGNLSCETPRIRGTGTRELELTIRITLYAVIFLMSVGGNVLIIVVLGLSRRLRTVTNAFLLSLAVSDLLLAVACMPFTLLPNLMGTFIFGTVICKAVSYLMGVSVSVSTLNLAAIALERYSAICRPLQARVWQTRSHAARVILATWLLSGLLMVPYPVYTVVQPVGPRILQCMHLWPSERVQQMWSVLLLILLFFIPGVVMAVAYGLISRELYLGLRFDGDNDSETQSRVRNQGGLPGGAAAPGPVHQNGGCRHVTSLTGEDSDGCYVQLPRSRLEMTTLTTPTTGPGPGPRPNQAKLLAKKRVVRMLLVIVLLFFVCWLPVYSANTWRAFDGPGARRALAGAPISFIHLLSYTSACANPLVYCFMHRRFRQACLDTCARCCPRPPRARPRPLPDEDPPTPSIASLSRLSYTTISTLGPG

[2] = target: T2, Cholecystokinin receptor type A (Rattus norvegicus, UniProt P30551); experiment: Inhibition of [3H]propionyl-CCK-8 binding to rat pancreas cholecystokinin-A (CCK-A) receptor
T2 sequence (P30551 whole entry): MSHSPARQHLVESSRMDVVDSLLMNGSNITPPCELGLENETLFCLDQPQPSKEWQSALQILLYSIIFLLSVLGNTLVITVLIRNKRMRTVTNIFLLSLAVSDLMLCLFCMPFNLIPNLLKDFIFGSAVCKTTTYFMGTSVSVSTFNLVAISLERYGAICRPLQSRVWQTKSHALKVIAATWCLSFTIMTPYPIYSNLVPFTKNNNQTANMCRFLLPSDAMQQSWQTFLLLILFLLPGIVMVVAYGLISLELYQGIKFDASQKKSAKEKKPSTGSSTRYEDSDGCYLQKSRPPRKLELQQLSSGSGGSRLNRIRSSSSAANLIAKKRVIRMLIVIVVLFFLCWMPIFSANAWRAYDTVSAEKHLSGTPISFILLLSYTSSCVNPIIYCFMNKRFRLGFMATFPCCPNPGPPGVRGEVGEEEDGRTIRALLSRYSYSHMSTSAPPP

Structure (SMILES)	IC50 [1] [µM]	IC50 [2] [µM]
C[Si](C)(C)CCOC(=O)C[C@@H](Cc1ccccc1)NC(=O)[C@@H]1Cc2c([nH]c3ccccc23)[C@H]2C[C@H](NC(=O)OCc3ccccc3)C(=O)N21	1.5	0.18
C[Si](C)(C)CCOC(=O)C[C@H](Cc1ccccc1)NC(=O)[C@@H]1Cc2c([nH]c3ccccc23)[C@H]2C[C@H](NC(=O)OCc3ccccc3)C(=O)N21	2.4	0.22
C[Si](C)(C)CCOC(=O)C[C@@H](Cc1ccccc1)NC(=O)[C@@H]1Cc2c([nH]c3ccccc23)[C@@H]2C[C@H](NC(=O)OCc3ccccc3)C(=O)N12	> 10	1.4
CC(C)(C)OC(=O)N[C@H]1C[C@@H]2c3[nH]c4ccccc4c3C[C@@H](C(=O)N[C@H](CC(=O)O)Cc3ccccc3)N2C1=O	> 10	> 10
O=C(O)C[C@@H](Cc1ccccc1)NC(=O)[C@@H]1Cc2c([nH]c3ccccc23)[C@H]2C[C@H](NC(=O)OCc3ccccc3)C(=O)N21	2.7	0.0074
O=C(O)C[C@@H](Cc1ccccc1)NC(=O)[C@@H]1Cc2c([nH]c3ccccc23)[C@@H]2C[C@H](NC(=O)OCc3ccccc3)C(=O)N12	> 10	1
CC(C)(C)OC(=O)N[C@H]1C[C@@H]2c3[nH]c4ccccc4c3C[C@@H](C(=O)N[C@@H](CC(=O)O)Cc3ccccc3)N2C1=O	> 10	4.48
O=C(O)C[C@H](Cc1ccccc1)NC(=O)[C@@H]1Cc2c([nH]c3ccccc23)[C@H]2C[C@H](NC(=O)OCc3ccccc3)C(=O)N21	> 10	0.088
C[Si](C)(C)CCOC(=O)C[C@H](Cc1ccccc1)NC(=O)[C@@H]1Cc2c([nH]c3ccccc23)[C@@H]2C[C@H](NC(=O)OCc3ccccc3)C(=O)N12	> 10	0.46
O=C(O)C[C@H](Cc1ccccc1)NC(=O)[C@@H]1Cc2c([nH]c3ccccc23)[C@@H]2C[C@H](NC(=O)OCc3ccccc3)C(=O)N12	> 10	0.635
